Measurements as given in PubChem BioAssay (NCI).
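Interpolation was linear, between the two tested concentrations surrounding the appropriate level; five concentrations were tested over 48 hours in 96-well plates. At the GI50, growth is halved. At the TGI there is no net growth.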

Tests used:
Test in all cases: NCI-60 cell line screen, 48 h
HOP-62 NSCLC = tested on: HOP-62 NSCLC
LOX IMVI melanoma = tested on: LOX IMVI melanoma
LXFL 529 NSCLC = tested on: LXFL 529 NSCLC
MOLT-4 leukemia = tested on: MOLT-4 leukemia
SF-268 CNS = tested on: SF-268 CNS
SK-OV-3 ovarian = tested on: SK-OV-3 ovarian
SNB-78 CNS = tested on: SNB-78 CNS
UACC-257 melanoma = tested on: UACC-257 melanoma
SK-MEL-5 melanoma = tested on: SK-MEL-5 melanoma
T-47D breast = tested on: T-47D breast

SMILES | TGI (HOP-62 NSCLC) | TGI (LOX IMVI melanoma) | TGI (LXFL 529 NSCLC) | TGI (MOLT-4 leukemia) | TGI (SF-268 CNS) | TGI (SK-OV-3 ovarian) | TGI (SNB-78 CNS) | TGI (UACC-257 melanoma) | GI50 (HOP-62 NSCLC) | GI50 (LOX IMVI melanoma) | GI50 (LXFL 529 NSCLC) | GI50 (MOLT-4 leukemia) | GI50 (SF-268 CNS) | GI50 (SK-MEL-5 melanoma) | TGI (SK-MEL-5 melanoma) | GI50 (SK-OV-3 ovarian) | GI50 (T-47D breast) | TGI (T-47D breast) | GI50 (UACC-257 melanoma)
COC(=O)C1=C(C)N(NC(N)=O)C(C)(O)C12CCOC2=O (stereo unspecified) | > 100 µM | > 100 µM | > 100 µM | > 100 µM | > 100 µM | > 100 µM | > 100 µM | > 100 µM | – | – | – | – | – | – | – | – | – | – | –
CC[CH2][Sn]([CH2]CC)([O]C(=O)Cc1ccc(F)cc1)[O][Sn]([CH2]CC)([CH2]CC)[O]C(=O)Cc1ccc(F)cc1 | 2.69 µM | 0.232 µM | 0.099 µM | 9.15 µM | 0.606 µM | 2.11 µM | – | 0.869 µM | 1.25 µM | 0.0851 µM | 0.0129 µM | 0.0614 µM | 0.13 µM | 0.472 µM | 1.47 µM | 0.774 µM | 0.0296 µM | 0.211 µM | 0.204 µM
CC(C)c1cccc(C(C)C)c1NC(=O)CCC(=O)NN | > 100 µM | – | > 100 µM | > 100 µM | > 100 µM | > 100 µM | > 100 µM | > 100 µM | – | – | – | – | – | – | > 100 µM | – | – | – | –
Clc1ccc2c(NCCNc3nc(N4CCCC4)nc4ccccc34)ccnc2c1 | 3.49 µM | 2.34 µM | – | 5.1 µM | 5.41 µM | 3.16 µM | – | 3.76 µM | 1.49 µM | 0.863 µM | – | 0.538 µM | 1.59 µM | 1.64 µM | 3.02 µM | 1.71 µM | 1.6 µM | 3.99 µM | 1.96 µM
O=C(Cc1ccccc1)NS(=O)(=O)c1ccccc1 | > 100 µM | > 100 µM | > 100 µM | > 100 µM | > 100 µM | > 100 µM | > 100 µM | > 100 µM | – | – | – | – | – | – | – | – | – | – | –
O=C(NCCCCCCNC(=O)OCc1ccc2c(Cl)cc(Cl)c(O)c2n1)OCc1ccc2c(Cl)cc(Cl)c(O)c2n1 | 4.22 µM | 1.1 µM | – | 5.55 µM | 2.78 µM | 17.9 µM | – | 2.77 µM | 1.7 µM | 0.325 µM | – | 0.688 µM | 1.33 µM | 1.54 µM | 2.88 µM | 5.5 µM | 1.75 µM | 5.67 µM | 1.3 µM
O=[N+]([O-])c1cc2c(c([N+](=O)[O-])c1)Nc1ccccc1O2 | 44.4 µM | > 100 µM | – | > 100 µM | > 100 µM | 58.6 µM | – | 39.1 µM | 16.3 µM | 4.67 µM | – | 6.22 µM | 6.53 µM | 3.81 µM | 21.6 µM | 15.2 µM | 2.79 µM | 10.2 µM | 3.74 µM
Oc1c(I)cc(I)cc1CN(Cc1ccccn1)Cc1ccccn1 | 8.45 µM | > 33.8 µM | – | 10.7 µM | 16.1 µM | 5.3 µM | – | 14.5 µM | 0.311 µM | 0.629 µM | – | 0.89 µM | 0.575 µM | 0.542 µM | 2.59 µM | 0.476 µM | 1.34 µM | 10.6 µM | 2.8 µM
